Results on four compounds are retold here after ChEMBL document CHEMBL3856205, “Synthesis and biological evaluation of novel 4-hydroxytamoxifen analogs as estrogen-related receptor gamma inverse agonists” (Eur J Med Chem, 2016).

SMILES strings stand for the structures.

The target of data set [1] is T1, Estrogen-related receptor gamma (Homo sapiens, UniProt P62508).
T1 sequence (P62508 whole entry): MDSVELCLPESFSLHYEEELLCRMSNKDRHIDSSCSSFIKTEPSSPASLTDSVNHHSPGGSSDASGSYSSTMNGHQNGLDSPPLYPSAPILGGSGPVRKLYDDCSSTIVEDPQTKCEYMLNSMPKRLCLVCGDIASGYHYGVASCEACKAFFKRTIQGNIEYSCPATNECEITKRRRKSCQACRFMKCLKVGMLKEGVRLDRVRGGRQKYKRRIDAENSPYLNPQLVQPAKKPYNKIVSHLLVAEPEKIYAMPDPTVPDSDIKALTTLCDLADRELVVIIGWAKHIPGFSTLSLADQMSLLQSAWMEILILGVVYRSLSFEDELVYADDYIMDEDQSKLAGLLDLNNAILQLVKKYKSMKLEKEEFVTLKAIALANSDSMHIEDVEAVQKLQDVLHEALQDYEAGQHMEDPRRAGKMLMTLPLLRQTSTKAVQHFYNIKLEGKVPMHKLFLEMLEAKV
Description: Inverse agonist activity at ERRgamma (unknown origin) expressed in human AD293 cells after 24 hrs by beta-galactosidase/luciferase reporter gene assay

In a further data set the target is CYP2C9 (Homo sapiens, UniProt P11712). The experiment in a line: Inhibition of CYP2C9 in human liver microsomes assessed as remaining activity by measuring tolbutamide 4-hydroxylase activity at 10 uM pre-incubated for 5 mins followed by NADPH regenerating system addition by LC-MS/MS analysis relative to control. The data set is classed as ADME. The settings on record: probe tolbutamide (4-hydroxylation), read-out: Activity. A general note: Liver microsomes are vesicles of endoplasmic reticulum, rich in cytochrome P450 enzymes.

Data set [2] concerns the target T1, Estrogen-related receptor gamma. The source holds these as a separate data set.
Description: Inhibition of fluorescien-conjugated coactivator PGC1a binding to GST-tagged human ERRgamma LBD after 1 hr by TR-FRET assay
The target in the next data set is T2, Estrogen receptor (Homo sapiens, UniProt P03372).
T2 sequence (P03372 whole entry): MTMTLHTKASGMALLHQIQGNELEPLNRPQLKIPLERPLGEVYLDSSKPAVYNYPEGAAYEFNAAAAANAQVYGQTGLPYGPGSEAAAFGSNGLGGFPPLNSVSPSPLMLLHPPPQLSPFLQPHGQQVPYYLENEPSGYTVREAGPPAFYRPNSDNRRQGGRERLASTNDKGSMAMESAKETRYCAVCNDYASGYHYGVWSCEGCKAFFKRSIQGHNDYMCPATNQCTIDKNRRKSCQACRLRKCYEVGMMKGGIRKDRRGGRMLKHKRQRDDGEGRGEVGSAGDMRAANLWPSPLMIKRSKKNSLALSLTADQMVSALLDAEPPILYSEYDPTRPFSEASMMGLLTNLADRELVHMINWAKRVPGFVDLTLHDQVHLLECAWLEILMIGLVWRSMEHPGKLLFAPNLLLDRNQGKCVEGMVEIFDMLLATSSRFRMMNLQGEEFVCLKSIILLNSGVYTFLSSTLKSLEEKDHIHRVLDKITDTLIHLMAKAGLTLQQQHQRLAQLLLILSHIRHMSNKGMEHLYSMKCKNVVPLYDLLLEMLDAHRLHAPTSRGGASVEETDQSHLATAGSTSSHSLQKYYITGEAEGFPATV

Data set [3] can be described thus: in vitro. The note with it: mouse, liver microsomes.
Description: Metabolic stability in mouse liver microsomes assessed as compound remaining at 1 uM after 30 mins in presence of NADPH by LC-MS/MS analysis
For a further data set, the target named is T3, CYP1A2 (Homo sapiens, UniProt P05177).
T3 sequence (P05177 whole entry): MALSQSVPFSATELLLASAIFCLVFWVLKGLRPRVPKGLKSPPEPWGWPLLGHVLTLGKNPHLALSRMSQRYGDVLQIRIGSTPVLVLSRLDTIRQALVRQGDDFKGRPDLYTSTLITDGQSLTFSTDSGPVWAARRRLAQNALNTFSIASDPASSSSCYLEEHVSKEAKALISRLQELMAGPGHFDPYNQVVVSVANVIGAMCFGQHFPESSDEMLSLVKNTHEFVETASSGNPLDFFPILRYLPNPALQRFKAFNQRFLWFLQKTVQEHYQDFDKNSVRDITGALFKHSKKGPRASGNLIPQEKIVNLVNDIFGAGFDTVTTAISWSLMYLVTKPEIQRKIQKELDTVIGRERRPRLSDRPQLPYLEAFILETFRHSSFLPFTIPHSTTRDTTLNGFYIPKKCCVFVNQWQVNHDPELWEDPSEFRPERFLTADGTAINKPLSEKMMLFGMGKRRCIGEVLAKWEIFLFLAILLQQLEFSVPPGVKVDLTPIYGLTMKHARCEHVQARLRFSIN
The experiment in a line: Inhibition of CYP1A2 in human liver microsomes assessed as remaining activity by measuring phenacetin O-deethylase activity at 10 uM pre-incubated for 5 mins followed by NADPH regenerating system addition by LC-MS/MS analysis relative to control. The note with it: probe phenacetin (O-deethylation), read-out: Activity. The data set is classed as ADME.

The next data set has as its target CYP2D6 (Homo sapiens, UniProt P10635). The data set is described as follows: Inhibition of CYP2D6 in human liver microsomes assessed as remaining activity by measuring dextromethorphan O-demethylase activity at 10 uM pre-incubated for 5 mins followed by NADPH regenerating system addition by LC-MS/MS analysis relative to control. The settings on record: probe dextromethorphan (O-demethylation), read-out: Activity. The format is ADME.

The nature of data set [4]: Metabolic stability in dog liver microsomes assessed as compound remaining at 1 uM after 30 mins in presence of NADPH by LC-MS/MS analysis. The settings on record: read-out: Stability. The data set is classed as ADME, Canis lupus familiaris.
The nature of data set [5]: Permeability of the compound in PBS at pH 7.4 at 10 uM after 5 hrs by LC-MS/MS analysis. The format is ADME. The settings on record: not told, read-out: permeability.
Another data set concerns the target CYP3A4 (Homo sapiens, UniProt P08684). The data set is described as follows: Inhibition of CYP3A4 in human liver microsomes assessed as remaining activity by measuring midazolam 1'-hydroxylase activity at 10 uM pre-incubated for 5 mins followed by NADPH regenerating system addition by LC-MS/MS analysis relative to control. The format is ADME. The note with it: probe midazolam (1'-hydroxylation), read-out: Activity.

Data set [6] can be described thus: in vitro. The settings on record: rat, liver microsomes.
Description: Metabolic stability in rat liver microsomes assessed as compound remaining at 1 uM after 30 mins in presence of NADPH by LC-MS/MS analysis
In a further data set the target is CYP2C19 (Homo sapiens, UniProt P33261). The experiment in a line: Inhibition of CYP2C19 in human liver microsomes assessed as remaining activity by measuring S-mephenytoin 4-hydroxylase activity at 10 uM pre-incubated for 5 mins followed by NADPH regenerating system addition by LC-MS/MS analysis relative to control. The format is ADME. The note with it: probe S-mephenytoin (4-hydroxylation), read-out: Activity.

The target of data set [7] is T4, Steroid hormone receptor ERR1 (Homo sapiens, UniProt P11474).
T4 sequence (P11474 whole entry): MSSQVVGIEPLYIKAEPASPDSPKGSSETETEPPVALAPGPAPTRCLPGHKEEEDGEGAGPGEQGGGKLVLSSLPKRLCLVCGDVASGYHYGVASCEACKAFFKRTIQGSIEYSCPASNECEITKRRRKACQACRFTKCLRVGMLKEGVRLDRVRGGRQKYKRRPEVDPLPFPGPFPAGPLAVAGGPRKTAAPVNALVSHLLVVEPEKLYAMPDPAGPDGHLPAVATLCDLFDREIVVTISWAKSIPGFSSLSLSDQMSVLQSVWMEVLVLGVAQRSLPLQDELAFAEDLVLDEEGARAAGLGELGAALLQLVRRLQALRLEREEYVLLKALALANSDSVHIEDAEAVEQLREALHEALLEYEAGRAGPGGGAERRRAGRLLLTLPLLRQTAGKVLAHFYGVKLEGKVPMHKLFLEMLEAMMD
The experiment in a line: Inhibition of fluorescien-conjugated coactivator PGC1a binding to ERRalpha (unknown origin) after 1 hr by TR-FRET assay. On the technique in general: TR-FRET usually uses a lanthanide donor and a delayed reading to cut background.

Data set [8] deals with T5, Steroid hormone receptor ERR2 (Homo sapiens, UniProt O95718).
T5 sequence (O95718 whole entry): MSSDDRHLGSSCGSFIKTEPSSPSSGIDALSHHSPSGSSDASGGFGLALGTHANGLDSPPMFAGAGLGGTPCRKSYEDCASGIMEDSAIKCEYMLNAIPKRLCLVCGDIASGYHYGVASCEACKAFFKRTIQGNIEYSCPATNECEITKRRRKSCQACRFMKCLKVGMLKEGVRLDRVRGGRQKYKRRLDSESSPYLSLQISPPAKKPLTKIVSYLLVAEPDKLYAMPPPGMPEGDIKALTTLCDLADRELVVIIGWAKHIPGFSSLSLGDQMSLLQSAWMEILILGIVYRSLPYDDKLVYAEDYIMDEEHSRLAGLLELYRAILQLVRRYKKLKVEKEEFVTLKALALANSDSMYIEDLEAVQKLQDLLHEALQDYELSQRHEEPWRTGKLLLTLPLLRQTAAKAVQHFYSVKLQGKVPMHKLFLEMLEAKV
The data set is described as follows: Inhibition of fluorescien-conjugated coactivator PGC1a binding to ERRbeta (unknown origin) after 1 hr by TR-FRET assay.

Data set [9] is described as follows: in vitro. The settings on record: human, liver microsomes.
Description: Metabolic stability in human liver microsomes assessed as compound remaining at 1 uM after 30 mins in presence of NADPH by LC-MS/MS analysis

CYP2C19, sequence (P33261 whole entry): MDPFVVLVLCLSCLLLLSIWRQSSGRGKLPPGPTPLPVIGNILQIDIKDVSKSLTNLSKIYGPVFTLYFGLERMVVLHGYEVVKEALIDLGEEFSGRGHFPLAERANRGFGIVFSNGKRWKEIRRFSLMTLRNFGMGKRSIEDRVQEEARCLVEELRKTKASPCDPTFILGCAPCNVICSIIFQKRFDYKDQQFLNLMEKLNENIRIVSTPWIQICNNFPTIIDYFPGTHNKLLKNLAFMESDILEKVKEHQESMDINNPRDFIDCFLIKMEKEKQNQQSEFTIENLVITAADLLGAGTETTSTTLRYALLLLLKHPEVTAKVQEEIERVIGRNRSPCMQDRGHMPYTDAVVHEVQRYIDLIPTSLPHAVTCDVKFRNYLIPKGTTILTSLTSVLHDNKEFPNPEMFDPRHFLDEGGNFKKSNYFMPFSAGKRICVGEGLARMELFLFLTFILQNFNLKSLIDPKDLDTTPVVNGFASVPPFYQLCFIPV
CYP2C9, sequence (P11712 whole entry): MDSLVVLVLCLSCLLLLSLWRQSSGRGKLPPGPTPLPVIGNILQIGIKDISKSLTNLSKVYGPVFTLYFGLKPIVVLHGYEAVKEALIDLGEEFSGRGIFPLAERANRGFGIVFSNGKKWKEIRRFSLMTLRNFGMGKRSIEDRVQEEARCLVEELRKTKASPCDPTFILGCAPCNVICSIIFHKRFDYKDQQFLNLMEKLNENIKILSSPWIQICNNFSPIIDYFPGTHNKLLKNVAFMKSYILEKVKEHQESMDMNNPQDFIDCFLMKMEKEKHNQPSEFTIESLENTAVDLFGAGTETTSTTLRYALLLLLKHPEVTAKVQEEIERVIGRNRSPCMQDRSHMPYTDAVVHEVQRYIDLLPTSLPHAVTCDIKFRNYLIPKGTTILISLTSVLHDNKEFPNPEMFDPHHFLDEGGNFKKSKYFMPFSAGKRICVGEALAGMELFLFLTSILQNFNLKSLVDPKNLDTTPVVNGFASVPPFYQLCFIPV
CYP2D6, sequence (P10635 whole entry): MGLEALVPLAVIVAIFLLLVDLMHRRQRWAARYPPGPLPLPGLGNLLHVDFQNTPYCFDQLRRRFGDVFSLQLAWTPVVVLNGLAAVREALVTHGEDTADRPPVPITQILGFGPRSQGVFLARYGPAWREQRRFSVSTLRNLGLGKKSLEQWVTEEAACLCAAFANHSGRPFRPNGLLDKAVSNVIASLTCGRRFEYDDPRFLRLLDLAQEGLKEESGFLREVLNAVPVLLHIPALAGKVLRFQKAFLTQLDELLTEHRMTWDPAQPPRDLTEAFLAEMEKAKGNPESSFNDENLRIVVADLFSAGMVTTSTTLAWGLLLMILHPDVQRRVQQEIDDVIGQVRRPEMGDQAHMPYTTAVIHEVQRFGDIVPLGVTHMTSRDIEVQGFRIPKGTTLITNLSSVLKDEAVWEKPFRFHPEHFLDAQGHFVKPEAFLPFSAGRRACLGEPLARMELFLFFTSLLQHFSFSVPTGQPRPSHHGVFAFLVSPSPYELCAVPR
CYP3A4, sequence (P08684 whole entry): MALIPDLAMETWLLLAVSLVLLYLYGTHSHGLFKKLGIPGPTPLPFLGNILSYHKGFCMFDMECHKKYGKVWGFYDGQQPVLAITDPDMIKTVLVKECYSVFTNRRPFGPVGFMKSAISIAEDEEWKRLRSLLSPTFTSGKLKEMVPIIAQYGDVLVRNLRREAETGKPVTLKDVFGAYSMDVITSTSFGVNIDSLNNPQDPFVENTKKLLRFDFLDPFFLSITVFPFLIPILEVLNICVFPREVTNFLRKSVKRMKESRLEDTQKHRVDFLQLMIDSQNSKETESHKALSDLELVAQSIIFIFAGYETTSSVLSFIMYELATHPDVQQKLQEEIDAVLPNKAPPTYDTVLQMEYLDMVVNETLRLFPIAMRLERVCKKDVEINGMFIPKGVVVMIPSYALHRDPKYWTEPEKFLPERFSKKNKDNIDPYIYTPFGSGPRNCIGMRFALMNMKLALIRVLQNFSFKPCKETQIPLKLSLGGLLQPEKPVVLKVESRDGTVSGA
Description for Estrogen receptor: Inhibition of fluorescien-conjugated coactivator PGC1a binding to ERalpha (unknown origin) after 1 hr by TR-FRET assay

The term IC50 denotes the concentration needed to halve the response being measured. Low values mean inhibition by little substance, high ones a need for much substance. On to `CN(C)CCOc1ccc(/C(=C(/CCCO)c2ccccc2)c2ccc(Br)cc2)cc1.Cl`, for which the half-inhibitory concentration (IC50) is 719 nM in [1]; 117 nM in data set [2]; above 10000 nM on Estrogen receptor; above 10000 nM in [7]; 6950 nM in [8]. The activity at 10 µM was 86% at CYP2C9; above 100% at CYP1A2; 99% on CYP2D6; 88% on CYP3A4; 61% at CYP2C19. Further, the remaining at 0.5 h, 1 µM stood at 35% in the data set “in vitro [3]”, 5.8% in [4], 30% in “in vitro [6]” and 42% in the data set “in vitro [9]”. In addition, in data set [5], the Papp at 5 h, 10 µM turned out to be 6.52 ×10⁻⁶ cm/s.
Take `Cc1ccc(/C(=C(\CCCO)c2ccccc2)c2ccc(OCCN(C)C)cc2)cc1.Cl`: the 50% inhibitory concentration (IC50) in data set [1] was 669 nM; in [2], 270 nM; on Estrogen receptor, above 10000 nM; in data set [7], above 10000 nM; in [8], above 10000 nM. The activity at 10 µM is 60% on CYP2C9; above 100% on CYP1A2; above 100% at CYP2D6; above 100% at CYP3A4; above 100% at CYP2C19. In addition, the remaining at 0.5 h, 1 µM was found to be 16% in the data set “in vitro [3]”, 13% in data set [4], 25% in “in vitro [6]” and 59% in “in vitro [9]”. In [5], the Papp at 5 h, 10 µM was found to be 9.94 ×10⁻⁶ cm/s.
Turning to `CNCCOc1ccc(/C(=C(/CCCO)c2ccccc2)c2ccc(O)cc2)cc1.Cl`, the IC50 is 187 nM in data set [1]; 190 nM in [2]; 3340 nM at Estrogen receptor; above 10000 nM in [7]; above 10000 nM in [8]. Moreover, the activity at 10 µM at CYP2C9 came to 44%; at CYP1A2 it was 91%; on CYP2D6 it was 89%; at CYP3A4, 85%; on CYP2C19, 76%. In addition, the remaining at 0.5 h, 1 µM in “in vitro [3]” worked out at 20%; in data set [4], 76%; in “in vitro [6]”, 79%; in the data set “in vitro [9]”, 83%. Also, in [5], the Papp at 5 h, 10 µM amounted to 0.03 ×10⁻⁶ cm/s.
Regarding `CCN(CC)CCOc1ccc(/C(=C(/CCCO)c2ccccc2)c2ccc(O)cc2)cc1.Cl`, the IC50 in data set [1] is 79 nM; in [2] it was 180 nM; at Estrogen receptor, 875 nM; in data set [7], above 10000 nM; in [8] it was above 10000 nM. Further, the activity at 10 µM worked out at 90% on CYP2C9; 82% at CYP1A2; 98% on CYP2D6; 93% on CYP3A4; 70% on CYP2C19. Further, the remaining at 0.5 h, 1 µM came out at 10% in the data set “in vitro [3]”, 22% in data set [4], 32% in “in vitro [6]” and 18% in the data set “in vitro [9]”. Also, the Papp at 5 h, 10 µM in data set [5] came to 1.02 ×10⁻⁶ cm/s.
